From patent US8383352B2, “Detection of maternal alcohol exposure” (Northwestern University, priority 2009, dated 2013) come the findings set out here.

The subject of data set [1] is TRα. The settings on record: in utero exposure to ethanol; Western blot, normalized to β-actin; pregnant Sprague-Dawley dams, last two weeks of gestation. For orientation: In western blotting, separated proteins are transferred to a membrane and probed.
The test system of data set [2] is Gsα. The settings on record: in utero exposure to ethanol; Western blot, normalized to β-actin; pregnant Sprague-Dawley dams, last two weeks of gestation.
The test system of data set [3] is GR. The settings on record: in utero exposure to ethanol; Western blot, normalized to β-actin; pregnant Sprague-Dawley dams, last two weeks of gestation.
Data set [4] deals with Dio3. The settings on record: in utero exposure to ethanol; Western blot, normalized to β-actin; pregnant Sprague-Dawley dams, last two weeks of gestation.
In data set [5] the test system is Dio3. The settings on record: fetal and adult frontal cortex and hippocampus; thyroid hormone levels inversely affected.

Take `CCO` [ethanol]: the “TRα protein levels in placenta” value in data set [1] was “down-regulation”. Moreover, the “Gsα protein levels in placenta” value in data set [2] was “up-regulation”. Also, in data set [3], the “GR protein levels in placenta” value is reported as “down-regulation”. Moreover, the “Dio3 protein levels in placenta” value in data set [4] was “up-regulation”. Moreover, the “Dio3 imprinting and total expression patterns” value in data set [5] is reported as “alters”.
